Data reported in US8012978B2, “Prodrugs of CC-A1065 analogs” (ImmunoGen, Inc., priority 2006, dated 2011).
Read-outs that look alike come from different tables or passages of the source.

Key:
mice = conditions: single intravenous dose of 12.5 μg/kg; cited from earlier work
[1] = cited from earlier work
Ramos cells = test: In vitro cytotoxicity towards Ramos cells; format: cell-based, human
Experimental: (§1) Sulfide or disulfide-containing and mercapto-containing prodrugs of CC-1065 analogs of the present invention can be evaluated for their ability to suppress proliferation of various unwanted cell lines in vitro under incubation conditions. Cell lines such as, for example, Ramos cell line and HL60 can easily be used for the assessment of the cytotoxicity of these compounds. Cells to be evaluated can be exposed to the compounds for 24 hours and the surviving fractions of cells measured in direct assays by known methods. IC50 values can then be calculated from the results of the assays.
(§2) Cytotoxicity of the prodrugs of the present invention and their conjugates with cell binding agents can be measured after cleavage of the protecting group and conversion into the active drug. Cytotoxicity to non-adherent cell lines such as Namalwa and HL60 can be measured by back-extrapolation of cell proliferation curves as described in Goldmacher et al, 135 J. Immunol. 3648-3651 (1985). Cytotoxicity of these compounds to adherent cell lines such as A-375 and SCaBER can be determined by clonogenic assays as described in Goldmacher et al, 102 J. Cell Biol. 1312-1319 (1986).
(§3) The human cancer cell lines HL60, Namalwa, A-375, COLO205 and Ramos were obtained from the American Type Culture Collection (ATCC). Kara is a murine tumor cell line that has been stably transfected with the human CD33 antigen.
• Cytotoxicity of DC07-SMe (FIG. 2) and DC1-SMe (FIG. 1D) towards Ramos and HL60/S cells has been measured in vitro with 5-day exposure. IC50 are shown below.
• Cytotoxicity of DC1-SPy and DC07-SPy towards Ramos and HL60 cells has been measured. Results are given in FIG. 7 and IC50 are shown below.
(§4) • Cytotoxicity of DC08-SSPy towards Namalwa and Ramos cells has been measured. Results are given in FIG. 8 and IC50 are shown below.
• Cytotoxicity of MY9-6-DC07 (disulfide linked) towards antigen positive Kara and antigen negative Ramos cells has been measured. Results are given in FIG. 9 and IC50 are shown below.

HL60 cells = test: In vitro cytotoxicity towards HL60 cells; format: cell-based, human; conditions: HL60/s cells, 5-day exposure; read-out: IC50 Concentration
Experimental: as §1
as §2, with “(1986). […]” for “(1986).”
• Cytotoxicity of DC07-SMe (FIG. 2) and DC1-SMe (FIG. 1D) towards Ramos and HL60/S cells has been measured in vitro with 5-day exposure. […]
• Cytotoxicity of DC1-SPy and DC07-SPy towards Ramos and HL60 cells has been measured. […]

[2] = Conversion of prodrug by incubation in mice serum; format: in vitro ADME
Description: (§5) The synthesis of prodrugs DC07 (7a), DC08 (8a) and DC107 (FIG. 4) is described herein. DC07 and DC08 as well as DC107 are derived from the parent drug DC1 and DC101, while DC09 (9a) can be prepared from the pegylated parent drug DC5 which was described in U.S. Pat. No. 6,756,397 B2 (FIG. 3). […] These drugs also have enhanced water solubility as compared with DC1.

[3] = Conversion of prodrug by incubation in serum or plasma; format: in vitro ADME
Description: as §5

[4] = Stability in aqueous solutions; format: physicochemical; conditions: pH 5.5 or below
Description: as §5

Namalwa cells = test: In vitro cytotoxicity towards Namalwa cells; format: cell-based, human; conditions: Namalwa cells (FIG. 8)
Description: as §2, §3, §4

A-375 cells = test: In vitro cytotoxicity towards antigen negative A-375 cells; format: cell-based, human
Description: as §2, §3
(§6) • Cytotoxicity of huC242-DC07 (thioether linked) towards antigen positive COLO 205 and antigen negative A-375 cells has been measured. Results are given in FIG. 10 and IC50 are shown below.

COLO 205 cells = test: In vitro cytotoxicity towards antigen positive COLO 205 cells; format: cell-based, human
Description: as §2, §3, §6

[5] = Ramos cells, 5-day exposure, read-out: IC50 Concentration

Molecule: COc1c(O)c2c(c3cc(C(=O)N4CCc5c4c(O)c(OC)c4[nH]c(C(=O)N6CC7CC78C6=CC(=O)c6[nH]cc(C)c68)cc54)[nH]c13)CCN2C(N)=O (stereo not shown) [CC-1065]
- toxicity (mice): delayed hepatotoxicity leading to mortality on day 50
- potency in vitro relative to doxorubicin, methotrexate and vincristine [1]: about 1000 fold

Molecule: CSSCCC(=O)Nc1ccc2[nH]c(C(=O)Nc3ccc4[nH]c(C(=O)N5C[C@@H](CCl)c6c5cc(O)c5ccccc65)cc4c3)cc2c1 [DC1-SMe, 1-[S]-(chloromethyl)-5-hydroxy-3-{{5-[5-(3-methyldithiopropionyl)indol-2-yl-carbonylamino]indole-2-yl}carbonyl}-1,2-dihydro-3H-benz[e]indole, reference compound]
- IC50 (Ramos cells; [5]): 62 pM
- IC50 (HL60 cells): 36 pM

Molecule: CSSCCC(=O)Nc1ccc2[nH]c(C(=O)Nc3ccc4[nH]c(C(=O)N5C[C@@H](CCl)c6c5cc(OC(=O)Nc5cccc(S(=O)(=O)O)c5)c5ccccc65)cc4c3)cc2c1 [DC07-SMe]
- conversion into the parent drug [2]: converts it into the parent drug DC1SMe
- IC50 (Ramos cells; [5]): 120 pM
- IC50 (HL60 cells): 50 pM

Molecule: O=C(CCS)Nc1ccc2[nH]c(C(=O)Nc3ccc4[nH]c(C(=O)N5C[C@@H](CCl)c6c5cc(OC(=O)Nc5cccc(S(=O)(=O)O)c5)c5ccccc65)cc4c3)cc2c1 [DC07]
- conversion into the parent drug [3]: can be converted into the parent drug DC1
- stability in aqueous solutions [4]: extremely stable

Molecule: (S)—N-[2-{(1-chloromethyl)-1,2-dihydro-5-[(3-hydroxysulfonylmethyl-phenyl)aminocarbonyloxy]-3H-benz(e)indol-3-yl}carbonyl]-H-indol-5-yl]-5-{[3-(2-pyridyldithio)-propanoyl]-amino}-1H-indole-2-carboxamide [DC08-SSPy]
- IC50 (Ramos cells; Ramos cells (FIG. 8), read-out: IC50): 420 pM
- IC50 (Namalwa cells): 420 pM

B1: huC242-DC07: huC242-DC07 (thioether linked) conjugate (conjugate, chains of the INN, looked up)
VH: QVQLVQSGAEVKKPGETVKISCKASDYTFTYYGMNWVKQAPGQGLKWMGWIDTTTGEPTYAQKFQGRIAFSLETSASTAYLQIKSLKSEDTATYFCARRGPYNWYFDVWGQGTTVTVSS
VL: DIVMTQSPLSVPVTPGEPVSISCRSSKSLLHSNGNTYLYWFLQRPGQSPQLLIYRMSNLVSGVPDRFSGSGSGTAFTLRISRVEAEDVGVYYCLQHLEYPFTFGPGTKLELK
modifications: DC07 drug, thioether linked
notes: huC242-DC07 (thioether linked) conjugate
- IC50 (A-375 cells): 1300 pM
- IC50 (COLO 205 cells): 35 pM
